The target in assay [1] is T1, Bromodomain adjacent to zinc finger domain protein 1A (Homo sapiens, UniProt Q9NRL2). As to the kind of experiment: Binding affinity to recombinant human N-terminal His6-tagged BAZ1A (1446 to 1516 residues) expressed in Escherichia coli BL21 (DE3) cells by MST assay.
The target of assay [2] is T1, Bromodomain adjacent to zinc finger domain protein 1A. As to the kind of experiment: Binding affinity to recombinant human N-terminal His6-tagged BAZ1A (1446 to 1516 residues) expressed in Escherichia coli BL21 (DE3) cells assessed as change in melting temperature at 25 uM by DSF assay. For orientation: In DSF a fluorescence change marks the thermal transition of the protein.

In a further assay the test system is Bel-7402. As to the kind of experiment: Cytotoxicity against human BEL7402 cells assessed as reduction in cell viability incubated for 72 hrs by MTT assay. The format is functional, cell-based. The note with it: Bel-7402, 72 h. (Tetrazolium assays rely on reduction of a dye to a coloured formazan, in cell work by metabolically active cells.)
The next assay deals with ZR-75-30. As to the kind of experiment: Cytotoxicity against human ZR-75-30 cells assessed as reduction in cell viability incubated for 72 hrs by MTT assay. The format is functional, cell-based. The note with it: ZR-75-30, 72 h.
For another assay, the system named is THP-1. As to the kind of experiment: Cytotoxicity against human THP-1 cells assessed as reduction in cell viability incubated for 72 hrs by MTT assay. It is filed as functional, cell-based. Conditions: THP-1, 72 h.
The subject of the next assay is NCI-H1975. As to the kind of experiment: Cytotoxicity against human H1975 cells assessed as reduction in cell viability incubated for 72 hrs by MTT assay. The format is functional, cell-based. Conditions: NCI-H1975, 72 h.
A further assay has as its system U-87 MG. As to the kind of experiment: Cytotoxicity against human U87 cells assessed as reduction in cell viability incubated for 72 hrs by MTT assay. The format is functional, cell-based, U-87MG ATCC.
The nature of assay [3]: Cytotoxicity against human H820 cells assessed as reduction in cell viability incubated for 72 hrs by MTT assay. The note with it: NCI-H820, 72 h. The format is functional, cell-based.
For a further assay, the system named is BT-474. As to the kind of experiment: Cytotoxicity against human BT474 cells assessed as reduction in cell viability incubated for 72 hrs by MTT assay. The format is functional, cell-based. Conditions: BT-474, 72 h.

For orientation: pKd means the negative decadic logarithm of the Kd, by convention in mol/L. One may read the ΔTm as the shift of the melting midpoint relative to a reference. Usually pIC50 stands for the negative decadic logarithm of the IC50, by convention in mol/L.

pIC50, pKd: −log10 of the molar value.

T1 sequence (Q9NRL2 whole entry, the tested form may be a part): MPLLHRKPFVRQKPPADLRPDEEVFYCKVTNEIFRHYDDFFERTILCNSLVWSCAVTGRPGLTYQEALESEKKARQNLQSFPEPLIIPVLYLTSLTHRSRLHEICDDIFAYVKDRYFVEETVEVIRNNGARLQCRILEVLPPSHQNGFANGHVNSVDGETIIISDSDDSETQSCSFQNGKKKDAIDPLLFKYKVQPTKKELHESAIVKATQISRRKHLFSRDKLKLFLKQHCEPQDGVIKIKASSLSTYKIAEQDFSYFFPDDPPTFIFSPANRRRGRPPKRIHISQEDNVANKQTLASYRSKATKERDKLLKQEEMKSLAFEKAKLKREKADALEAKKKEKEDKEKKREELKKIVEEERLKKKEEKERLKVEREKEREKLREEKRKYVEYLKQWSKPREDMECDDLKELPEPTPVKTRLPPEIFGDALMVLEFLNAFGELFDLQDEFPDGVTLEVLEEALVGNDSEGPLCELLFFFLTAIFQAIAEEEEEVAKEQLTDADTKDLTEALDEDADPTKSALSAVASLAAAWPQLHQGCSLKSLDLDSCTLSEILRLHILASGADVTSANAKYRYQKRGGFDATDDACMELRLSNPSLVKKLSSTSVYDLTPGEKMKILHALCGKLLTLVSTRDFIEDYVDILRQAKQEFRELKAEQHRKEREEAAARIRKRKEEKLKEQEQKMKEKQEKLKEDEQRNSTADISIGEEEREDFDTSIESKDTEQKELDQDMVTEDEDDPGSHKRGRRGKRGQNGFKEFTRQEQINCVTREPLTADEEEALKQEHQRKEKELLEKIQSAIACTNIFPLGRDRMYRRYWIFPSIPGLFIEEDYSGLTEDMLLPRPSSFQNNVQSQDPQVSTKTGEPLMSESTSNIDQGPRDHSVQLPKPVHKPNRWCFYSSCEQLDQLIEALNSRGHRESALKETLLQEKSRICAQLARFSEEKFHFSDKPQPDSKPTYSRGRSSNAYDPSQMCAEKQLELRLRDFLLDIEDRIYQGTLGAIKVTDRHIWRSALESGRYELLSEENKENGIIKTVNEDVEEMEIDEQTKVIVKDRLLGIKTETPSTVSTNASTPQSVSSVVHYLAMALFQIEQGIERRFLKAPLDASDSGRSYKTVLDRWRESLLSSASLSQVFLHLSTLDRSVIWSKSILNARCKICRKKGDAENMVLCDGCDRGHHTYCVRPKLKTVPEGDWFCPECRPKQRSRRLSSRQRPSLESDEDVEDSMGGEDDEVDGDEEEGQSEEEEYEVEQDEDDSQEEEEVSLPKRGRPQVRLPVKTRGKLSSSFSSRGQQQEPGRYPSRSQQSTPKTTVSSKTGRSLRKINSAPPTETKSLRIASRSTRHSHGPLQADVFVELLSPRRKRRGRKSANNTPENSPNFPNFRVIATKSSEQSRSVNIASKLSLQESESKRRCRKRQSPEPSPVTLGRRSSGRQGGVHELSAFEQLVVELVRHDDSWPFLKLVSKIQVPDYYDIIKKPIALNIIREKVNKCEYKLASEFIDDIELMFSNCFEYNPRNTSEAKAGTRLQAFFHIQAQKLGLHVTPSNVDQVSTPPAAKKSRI

Regarding `O=C(Nc1ccc(Cl)c(Cl)c1)Nc1ccc2nnsc2c1`, in assay [1], the pKd is 5.80. Moreover, the ΔTm in assay [2] was 2.59 °C.

On to `NC(C(=O)Nc1ccc2nnsc2c1)c1ccccc1` (centres undefined), for which, in assay [1], the pKd is 5.73. Further, the ΔTm in [2] worked out at 1.25 °C.

For the molecule `O=C(Nc1cccc([N+](=O)[O-])c1)Nc1nc(-c2ccccc2)cs1`, the negative logarithm of the IC50 (pIC50) is under 4.00 in the assay on Bel-7402; 5.37 with ZR-75-30; 5.29 in the assay with THP-1; 5.11 in the assay with NCI-H1975; under 4.00 with U-87 MG; 4.13 in [3]. The pIC50 in the assay on BT-474 is 4.97. In assay [1], the pKd was 6.28. Moreover, the ΔTm in assay [2] came out at 2.73 °C.

Take `O=C(Nc1cccc([N+](=O)[O-])c1)Nc1ccc2c(c1)OCCO2`: the pKd in assay [1] is 5.87. Besides, the thermal shift (ΔTm) in assay [2] is 1.62 °C.

Take `O=C(NCC(=O)N1CCCCC1)Nc1ccc2nnsc2c1`: in assay [1], the pKd is 4.59. In addition, the shift in melting temperature (ΔTm) in [2] came to 1.2 °C.

With `CC(NC(=O)Nc1ccc2nnsc2c1)c1cccc(F)c1` (centres undefined), in assay [1], the pKd is 5.09. For the same molecule, in assay [2], the ΔTm is 1.62 °C.

As for `O=C(Nc1cccc([N+](=O)[O-])c1)Nc1ccc2cccnc2c1`, the pKd in assay [1] is 5.18. Besides, the ΔTm in assay [2] came out at 1.63 °C.

For the molecule `CN(C)c1ccc(NC(=O)Nc2cccc([N+](=O)[O-])c2)cc1`, in assay [1], the pKd was 5.75. Further, the shift in melting temperature (ΔTm) in [2] was determined as 1.56 °C.

As for `O=C(Nc1ccc2nnsc2c1)N(O)c1ccccc1`, the pKd in assay [1] was 4.79. In addition, in assay [2], the ΔTm was 1.68 °C.

On to `Cc1ccc2nc(-c3ccc(NC(=O)c4ccc([N+](=O)[O-])o4)cc3)oc2c1`, for which, in assay [1], the negative logarithm of the Kd (pKd) is 4.57. Also, the ΔTm in [2] worked out at 1.9 °C.

In the case of `C=C(C)C(=O)Nc1ccc(-c2nc3cc(NC(=O)C(=C)C)ccc3[nH]2)cc1`, in [1], the pKd was 4.82. Moreover, in assay [2], the ΔTm is 1.61 °C.

For `O=C(Nc1cccc([N+](=O)[O-])c1)Nc1ccc2c(c1)C(=O)CC2`, the pKd in [1] was 4.66. For the same molecule, the ΔTm in assay [2] was found to be 1.16 °C.

For `CN(Cc1cccc([N+](=O)[O-])c1)C(=O)Nc1ccc2nnsc2c1`, in assay [1], the pKd was 4.24. Further, in [2], the ΔTm worked out at 1.46 °C.

On to `O=C(Nc1ccc2cncnc2c1)Nc1ccc2nnsc2c1`, for which the pKd in assay [1] was 5.41. The ΔTm in assay [2] amounted to 1.94 °C.

With `O=C(Nc1ccc(C(F)(F)F)cc1)Nc1cccc(O)c1`, the pKd in assay [1] is 4.88. In assay [2], the ΔTm was determined as 3.15 °C.

As to `O=C(Nc1cccc([N+](=O)[O-])c1)Nc1ccc2nccnc2c1`, the pKd in [1] was 5.51. Also, the ΔTm in [2] came out at 1.64 °C.

The values above are taken from ChEMBL document CHEMBL4673371, “Discovery of BAZ1A bromodomain inhibitors with the aid of virtual screening and activity evaluation” (Bioorg Med Chem Lett, 2021).
